Test results from patent publication US20240425464A1, “Substituted Monohydrazides as Potent Antifungal Agents” (University of Kentucky Research Foundation, priority 2023, published 2024).
In brackets after ≈: the same amount, converted by molar mass. Like-named read-outs stand apart in the source and are kept apart here.

Key:
Assay in all cases: MIC determination by in vitro antifungal assay
Format in all cases: cell-based, Candida auris
C. auris AR Bank #388 = tested on: C. auris AR Bank #388
Protocol: (§1) The antifungal agent amphotericin B (AmB) was purchased from VWR (Radnor PA, USA). AmB was dissolved in DMSO at a final concentration of 5 mg/mL and was stored at −20° C., protected from light. Candida albicans American Type Culture Collection (ATCC) 10231 (strain A), C. albicans ATCC 64124 (B), and C. albicans ATCC MYA-2876 (C) were obtained from Utah State University. C. albicans ATCC 90819 (D), C. albicans ATCC MYA-2310 (E), C. albicans ATCC MYA-1237 (F), C. albicans ATCC MYA-1003 (G), Candida glabrata ATCC 2001 (H), Candida krusei ATCC 6258 (I), Candida parapsilosis ATCC 22019 (J), Cryptococcus neoformans ATCC MYA-895 (M), Aspergillus terreus ATCC MYA-3633 (N), and Aspergillus flavus ATCC MYA-3631 (0) were obtained from the American Type Culture Collection (ATCC; Manassas, VA, USA). Aspergillus nidulans ATCC 38163 (P) was obtained from University of Kentucky. Clinically derived Aspergillus fumigatus NRRL 163 (Q), A. fumigatus NRRL 5109 (R), and A. fumigatus NRRL 6113 (S) were obtained from Northern Regional Research Laboratory (NRRL). Candida auris 384 (K), C. auris 390 (L), and fungal strains 381-400 (including 10 C. auris (AR Bank #381-390), 3 Candida duobushaemulonii (AR Bank #391, AR Bank #392, and AR Bank #394), 2 Candida haemulonii (AR Bank #393 and AR Bank #395), 1 Kodameae ohmeri (AR Bank #396), 1 C. krusei (AR Bank #397), 1 Candida lusitaniae (AR Bank #398), and 2 Saccharomyces cerevisiae strains (AR Bank #399 and AR Bank #400)) were part of a larger fungal library from the AR Bank maintained by the Centers for Disease Control and Prevention (CDC; Atlanta, GA, USA). Filamentous fungi and yeasts were cultivated at 35° C. in RPMI 1640 medium (with L-glutamine, without sodium bicarbonate, Sigma-Aldrich, St. Louis, MO) buffered to a pH of 7.0 with 0.165 M morpholinepropanesulfonic acid (MOPS) buffer (Sigma-Aldrich). For cytotoxicity assays, HepG2 and the mouse macrophage cell line J774A.1 were obtained from University of Kentucky. The human embryonic kidney cell line, HEK-293, was bought from the ATCC. Mammalian cells were grown in Dulbecco's Modified Eagle's Medium (DMEM) (from VWR) with 10% fetal bovine serum (FBS) (from VWR) and 1% Pen/Strep (from ATCC). Cell lines were cultured at 37° C. with 5% CO2 and passaged by trypsinization with 0.05% trypsin: 0.53 mM EDTA (from Sigma-Aldrich).
(§2) From the actively growing yeast culture, 100 µL were then transferred to 900 μL of RPMI 1640 medium and re-adjusted to achieve OD600 of 0.12 (˜1×10^6 CFU/mL). The cell suspension was further diluted to achieve 1:100 in RPMI 1640 medium.

C. auris AR Bank #387 = tested on: C. auris AR Bank #387
Protocol: as §1, §2

C. auris AR Bank #383 = tested on: C. auris AR Bank #383
Protocol: as §1, §2

C. auris AR Bank #389 = tested on: C. auris AR Bank #389
Protocol: as §1, §2

C. auris AR Bank #381 = tested on: C. auris AR Bank #381
Protocol: as §1, §2

C. auris AR Bank #386 = tested on: C. auris AR Bank #386
Protocol: as §1, §2

C. auris AR Bank #382 = tested on: C. auris AR Bank #382
Protocol: as §1, §2

C. auris AR Bank #385 = tested on: C. auris AR Bank #385
Protocol: as §1, §2

[1] = Candidozyma auris, C. auris AR Bank # 388 (Table 2B), read-out: MIC
[2] = Candidozyma auris, C. auris AR Bank # 387 (Table 2B), read-out: MIC
[3] = Candidozyma auris, C. auris AR Bank # 383 (Table 2B), read-out: MIC
[4] = Candidozyma auris, C. auris AR Bank # 389 (Table 2B), read-out: MIC
[5] = Candidozyma auris, C. auris AR Bank # 381 (Table 2B), read-out: MIC
[6] = Candidozyma auris, C. auris AR Bank # 386 (Table 2B), read-out: MIC
[7] = Candidozyma auris, C. auris AR Bank # 382 (Table 2B), read-out: MIC
[8] = Candidozyma auris, C. auris AR Bank # 385 (Table 2B), read-out: MIC
[9] = C. auris AR Bank # 388 (Table 2B)
[10] = C. auris AR Bank # 387 (Table 2B)
[11] = C. auris AR Bank # 383 (Table 2B)
[12] = C. auris AR Bank # 389 (Table 2B)
[13] = C. auris AR Bank # 381 (Table 2B)
[14] = C. auris AR Bank # 386 (Table 2B)
[15] = C. auris AR Bank # 382 (Table 2B)
[16] = C. auris AR Bank # 385 (Table 2B)

| SMILES | MIC (C. auris AR Bank #388; [1]) [µg/mL] | MIC (C. auris AR Bank #387; [2]) [µg/mL] | MIC (C. auris AR Bank #383; [3]) [µg/mL] | MIC (C. auris AR Bank #389; [4]) [µg/mL] | MIC (C. auris AR Bank #381; [5]) [µg/mL] | MIC (C. auris AR Bank #386; [6]) [µg/mL] | MIC (C. auris AR Bank #382; [7]) [µg/mL] | MIC (C. auris AR Bank #385; [8]) [µg/mL] | MIC (C. auris AR Bank #388; C. auris AR Bank #388) [μg/mL^−1] | MIC (C. auris AR Bank #387; C. auris AR Bank #387) [μg/mL^−1] | MIC (C. auris AR Bank #383; C. auris AR Bank #383) [μg/mL^−1] | MIC (C. auris AR Bank #389; C. auris AR Bank #389) [μg/mL^−1] | MIC (C. auris AR Bank #381; C. auris AR Bank #381) [μg/mL^−1] | MIC (C. auris AR Bank #386; C. auris AR Bank #386) [μg/mL^−1] | MIC (C. auris AR Bank #382; C. auris AR Bank #382) [μg/mL^−1] | MIC (C. auris AR Bank #385; C. auris AR Bank #385) [μg/mL^−1] | also measured |
| --- | --- | --- | --- | --- | --- | --- | --- | --- | --- | --- | --- | --- | --- | --- | --- | --- | --- |
| COc1ccc(NNC(=O)c2nc(F)ccc2F)cc1 [Compound 8f] | 0.98 (≈ 3.51 µM) | 0.98 (≈ 3.51 µM) | 1.95 (≈ 6.98 µM) | 0.98 (≈ 3.51 µM) | 0.98 (≈ 3.51 µM) | 0.98 (≈ 3.51 µM) | 0.98 (≈ 3.51 µM) | 0.49 (≈ 1.75 µM) |  |  |  |  |  |  |  |  |  |
| O=C(NNc1cccc(F)c1)c1ccccn1 [Compound 2a] |  |  |  |  |  |  |  |  | 0.49 | 0.49 | 1.95 | 0.12 | 0.49 | 0.49 | 0.98 | 0.98 |  |
| COc1cccc(NNC(=O)c2ccccn2)c1 [Compound 2c] |  |  |  |  |  |  |  |  | 3.9 | 0.49 | 0.98 | 0.49 | 3.9 | 0.49 | 0.98 | 3.9 |  |
| O=C(NNc1ccc(F)cc1F)c1ncc(F)cc1F [Compound 7g] | 3.9 (≈ 13.7 µM) | 1.95 (≈ 6.84 µM) | 3.9 (≈ 13.7 µM) | 3.9 (≈ 13.7 µM) | 3.9 (≈ 13.7 µM) | 1.95 (≈ 6.84 µM) | 1.95 (≈ 6.84 µM) | 0.98 (≈ 3.44 µM) |  |  |  |  |  |  |  |  |  |
| O=C(NNc1cc(Cl)cc(Cl)c1)c1ccc(F)cc1F [Compound 1j] | > 31.3 | > 31.3 | > 31.3 | > 31.3 | > 31.3 | > 31.3 | 15.6 (≈ 49.2 µM) | 31.3 (≈ 98.7 µM) |  |  |  |  |  |  |  |  |  |
| O=C(NNc1cc(F)cc(F)c1)c1ccccn1 [Compound 2i] |  |  |  |  |  |  |  |  |  |  |  |  |  |  |  |  | MIC (C. auris AR Bank #388; Candidozyma auris, C. auris AR Bank #388, read-out: MIC): 0.24 µg/mL (≈ 0.963 µM); MIC (C. auris AR Bank #387; Candidozyma auris, C. auris AR Bank #387, read-out: MIC): 0.24 µg/mL (≈ 0.963 µM); MIC (C. auris AR Bank #383; Candidozyma auris, C. auris AR Bank #383, read-out: MIC): 0.24 µg/mL (≈ 0.963 µM); MIC (C. auris AR Bank #389; Candidozyma auris, C. auris AR Bank #389, read-out: MIC): 0.24 µg/mL (≈ 0.963 µM); MIC (C. auris AR Bank #381; Candidozyma auris, C. auris AR Bank #381, read-out: MIC): 0.98 µg/mL (≈ 3.93 µM); MIC (C. auris AR Bank #386; Candidozyma auris, C. auris AR Bank #386, read-out: MIC): ≤ 0.06 µg/mL; MIC (C. auris AR Bank #382; Candidozyma auris, C. auris AR Bank #382, read-out: MIC): 0.12 µg/mL (≈ 0.482 µM); MIC (C. auris AR Bank #385; Candidozyma auris, C. auris AR Bank #385, read-out: MIC): 0.24 µg/mL (≈ 0.963 µM) |
| O=C(NNc1ccc(Cl)cc1)c1cnccn1 [Compound 9e] |  |  |  |  |  |  |  |  | 7.8 | 13.6 | 3.9 | 7.8 | 7.8 | 7.8 | 13.6 | 31.3 |  |
| O=C(NNc1ccc(Cl)cc1)c1cccc(F)n1 [Compound 5e] |  |  |  |  |  |  |  |  |  |  |  |  |  |  |  |  | MIC (C. auris AR Bank #388; [9]): 7.8 μg/mL^−1; MIC (C. auris AR Bank #387; [10]): 7.8 μg/mL^−1; MIC (C. auris AR Bank #383; [11]): 3.9 μg/mL^−1; MIC (C. auris AR Bank #389; [12]): 7.8 μg/mL^−1; MIC (C. auris AR Bank #381; [13]): 7.8 μg/mL^−1; MIC (C. auris AR Bank #386; [14]): 7.8 μg/mL^−1; MIC (C. auris AR Bank #382; [15]): 7.8 μg/mL^−1; MIC (C. auris AR Bank #385; [16]): 3.9 μg/mL^−1 |
| O=C(NNc1ccc(F)cc1)c1ncc(F)cc1F [Compound 7d] | 0.49 (≈ 1.83 µM) | 0.49 (≈ 1.83 µM) | 1.95 (≈ 7.3 µM) | 1.95 (≈ 7.3 µM) | 1.95 (≈ 7.3 µM) | 0.98 (≈ 3.67 µM) | 0.98 (≈ 3.67 µM) | 0.49 (≈ 1.83 µM) |  |  |  |  |  |  |  |  |  |
| O=C(NNc1ccc(Cl)cc1)c1ncc(F)cc1F [Compound 7e] |  |  |  |  |  |  |  |  |  |  |  |  |  |  |  |  | MIC (C. auris AR Bank #388; [9]): 7.8 μg/mL^−1; MIC (C. auris AR Bank #387; [10]): 15.6 μg/mL^−1; MIC (C. auris AR Bank #383; [11]): 3.9 μg/mL^−1; MIC (C. auris AR Bank #389; [12]): 7.8 μg/mL^−1; MIC (C. auris AR Bank #381; [13]): 7.8 μg/mL^−1; MIC (C. auris AR Bank #386; [14]): 15.6 μg/mL^−1; MIC (C. auris AR Bank #382; [15]): 15.6 μg/mL^−1; MIC (C. auris AR Bank #385; [16]): 7.8 μg/mL^−1 |
